In patent US20030208035A1, “Antifungal and/or antibacterial peptides, preparation methods, compositions containing same and methods of treating mammals and/or plants” (priority 2000, published 2003):

Experiments:
[1] = test system: Candida albicans (IHEM 8060 strain); assay: Candida albicans infected model, lethal in mice (disseminated candidiasis); assay type: in vivo; details: for median mortality, time after infection / morbidity score at day 7: 4 injections; for morbidity score at day 7: 50 = all 10 mice healthy; for activity compared with Ard1 / mice alive on day 7 (out of 10) / time of onset of the 1st death: FIGS. 4-5, 10 mg/kg; for mice alive on day 7 (out of 10): placebo 5 alive; for time of onset of the 1st death: placebo day 2.5
Method: Heliomycin and its analogues were tested for in vivo antifungal activity in a model infected with Candida albicans, lethal in mice. The pathogenic agent Candida albicans (IHEM 8060 strain) was inoculated by intravenous route (i.v.) at a dose of 2.5×10^6 CFU/mouse. the peptides were administered by i.v. route in 4 injections 6 h, 24 h, 48 h and 72 h after infection. Assessment criteria for activity were evaluation of survival and morbidity at 7 days. The morbidity scores, which take into account general state of health (condition of fur, mobility, hydration) were determined for each mouse with values ranging from 0 to 5 and defined below: 0=dead, 1=moribund, 2=very ill, 3=ill, 4=slightly ill, 5=healthy. The sum of the individual scores was calculated for each group, a score of 50 for a group of 10 mice meaning that all the mice were healthy.
Following a standard protocol, groups of 10 Swiss OF1 male mice weighing 12 g were infected via i.v. route with a dose of 2.5×10^6 CFU/mouse. Heliomycin and Ard1 were administered by i.v. route in 4 injections, 6 h, 24 h, 48 h and 72 h after infection. For each peptide, 2 doses were tested: 10 mg/kg and 30 mg/kg. A placebo group was injected with peptide solvent, 0.9% sodium chloride.
In this experiment, inoculation of the mice with 2.5.10^6 CFU/mouse was 50% lethal at day 5 in the group which received placebo treatment. The first deaths occurred on post-infection day 2.5 and median mortality occurred on post-infection day 5. On day 7, 5 mice were alive and the morbidity score 15/50.
In this experiment, inoculation of Swiss OF1 mice weighing 15 g with 3.10^6 CFU of Candida albicans induces 50% mortality on day 4 after infection in the group treated with the placebo. The first deaths occur 2.5 days after infection, and 100% of the mice were dead on day 5.5.
In this experiment, inoculation of the mice with 2.5.10^6 CFU/mouse was 50% lethal at day 5 and 100% at day 8 for mice in the placebo group. The first death occurred 3 days after infection. The morbidity score fell rapidly below 30/50 (25/50 at day 2.5).
The pEM35 peptide was administered at doses of 10 and 30 mg/kg/injection with 3 daily doses for 4 days (1 h, 5 h and 10 h post-infection on day 0; at 8 h, 14 h and 20 h on days 1, 2 and 3), i.e., daily doses totalling 30 and 90 mg/kg.

Aspergillus fumigatus = assay: anti-Aspergillus fumigatus growth inhibition test in liquid medium (96-well microplates); assay type: cell-based; details: for Activity A.f. (relative activity in relation to heliomycin): fold relative to heliomycin; for Activity A.f. (relative activity in relation to Ard1): fold relative to Ard1
Method: (§1) The anti-Candida albicans and anti-Aspergillus fumigatus activities of the different analogues were assessed using a growth inhibition test in liquid medium made in 96-well microplates. The activity of the purified peptides was tested for different dilutions of each peptide and was compared with those of heliomycin and Ard1 quantified under the same conditions.
The spores of Aspergillus fumigatus were derived from a stock frozen at −80° C., containing 10^7 spores/ml in a 25% glycerol solution. After slow thawing at room temperature, the spores were placed in suspension in PDB culture medium (12 g Potato Dextrose Broth medium, per […] water). 10 μl of each sample were deposited in the wells of microtitration plates in the presence of 90 μl PDB culture medium supplemented with tetracycline (100 μg/ml) and cefotaxime (1 μg/ml) containing the spores (at a final concentration of 1000 spores/well). Control cultures were systematically made in which 10 μl of sample were replaced by 10 μl of sterile water. Media sterility was controlled by incubating 10 μl sterile water in the presence of 90 μl of medium. The samples were incubated at 37° C. for 24 h to 48 h in a humid atmosphere, and the antifungal activity was quantified by a score of 0 to 9 taking germination account; the size and morphology of the hyphs were determined under the binocular microscope. […].

Candida albicans = assay: anti-Candida albicans growth inhibition test in liquid medium (96-well microplates); assay type: cell-based; details: for Activity C.a. (relative activity in relation to heliomycin): fold relative to heliomycin; for Activity C.a. (relative activity in relation to Ard1): fold relative to Ard1
Method: as §1
The activity test was made directly on yeasts derived from a stock frozen at −80° C., in Sabouraud medium containing 15% glycerol. The density of the yeasts in the stock was adjusted to an optical density of 0.4 OD at 600 nm. After slow thawing at room temperature, the yeast suspension was reduced by dilution to an optic density of 1 mOD at 600 nm in Sabouraud medium, and 90 μl of this dilution were deposited in the wells of microtitration plates in the presence of 10 μl of sample to be tested. Control samples were systematically made in which 10 μl of sample were replaced by 10 μl of sterile water. Media sterility was controlled by incubating 10 μl sterile water in the presence of 90 μl of medium. The samples were incubated at 30° C. for 40 h under slight stirring and the antifungal activity was quantified by measuring optic density at 600 nm.

Row | Compound | Activity A.f. (relative activity in relation to heliomycin) (Aspergillus fumigatus) | Activity C.a. (relative activity in relation to heliomycin) (Candida albicans) | Activity A.f. (relative activity in relation to Ard1) (Aspergillus fumigatus) | Activity C.a. (relative activity in relation to Ard1) (Candida albicans) | also measured
1 | Cc1cc(O)c2c3c4c(cc(O)c13)C(C)(C)C(=O)c1c(O)cc(O)c(c1-4)C2=O [Heliomycin, reference compound] |  |  |  |  | median mortality, time after infection ([1]; FIGS. 2-3, 10 mg/kg i.v.): 48 h; morbidity score at day 7 ([1]; FIGS. 2-3, 10 mg/kg i.v.): 0/50; median mortality, time after infection ([1]; FIGS. 2-3, 30 mg/kg i.v.): 60 h; morbidity score at day 7 ([1]; FIGS. 2-3, 30 mg/kg i.v.): 5/50; effect on survival rate ([1]; FIGS. 2-3, 2.5×10^6 CFU/mouse i.v., 10 and 30 mg/kg i.v., 4 injections 6, 24, 48, 72 h, 10 mice, placebo 100% lethal day 4): no significant effect
2 | DKLIGSCVWGAVNYTRDCNGECKRRGYKGGHCGSFANVNCWCET [pEM42, peptide derived from heliomycin] | 1 | 8 |  |  | 
3 | DKLIGSCVWGAVNYTRNCNAECKRRGYKGGHCGSFANVNCWCET [pEM50, peptide derived from Ard1] |  |  | 1 | 1-2 | 
4 | DKLIGSCVWGAVNYTSDCNGECKRRGYKGGHCGSFANINCWCET [pEM23, peptide derived from heliomycin] | 2 | 1 |  |  | 
5 | DKLIGSCVWGAVNYTSDCNGECKRRGYKGGHCGSFANVNCWCER [pEM7, peptide derived from heliomycin] | 1 | 4-8 |  |  | 
6 | DKLIGSCVWGAVNYTSDCNGECKRRGYKGGHCGSFANVNCWCQT [pEM21, peptide derived from heliomycin] | 10-20 | 2 |  |  | 
7 | DKLIGSCVWGAVNYTSDCNGECKRRGYKGGHCGSFINVNCWCET [pEM22, peptide derived from heliomycin] | 4-8 | 1-2 |  |  | 
8 | DKLIGSCVWGAVNYTSDCNGECKRRGYKGGHCGSFLNINCWCET [pEM24, peptide derived from heliomycin] | 8 | 4 |  |  | activity compared with Ard1 [1]: more active than Ard1; mice alive on day 7 (out of 10) [1]: 7 mice; time of onset of the 1st death [1]: 3 days
9 | DKLIGSCVWGAVNYTSDCNGECKRRGYKGGHCGSFLNVNCWCET [pEM25, peptide derived from heliomycin] | 6 | 10 |  |  | 
10 | DKLIGSCVWGAVNYTSDCRGECKRRGYKGGHCGSFANVNCWCET [pEM44, peptide derived from heliomycin] | 2 | 8 |  |  | 
11 | DKLIGSCVWGAVNYTSNCNAECKRRGYKGGHCGSFANINCWCET [pEM33, peptide derived from Ard1] |  |  | 1 | 1 | 
12 | DKLIGSCVWGAVNYTSNCNAECKRRGYKGGHCGSFANVNCWCER [pEM30, peptide derived from Ard1] |  |  | 0.5-1 | 4 | activity compared with Ard1 [1]: more active than Ard1; mice alive on day 7 (out of 10) [1]: 7 mice; time of onset of the 1st death [1]: 4 days
13 | DKLIGSCVWGAVNYTSNCNAECKRRGYKGGHCGSFINVNCWCER [pEM49, peptide derived from Ard1] |  |  | 1-2 | 3 | 
14 | DKLIGSCVWGAVNYTSNCNAECKRRGYKGGHCGSFINVNCWCET [pEM32, peptide derived from Ard1] |  |  | 2 | 1 | 
15 | DKLIGSCVWGAVNYTSNCNAECKRRGYKGGHCGSFINVNCWCQT [pEM47, peptide derived from Ard1] |  |  | 8 | 2-4 | 
16 | DKLIGSCVWGAVNYTSNCNAECKRRGYKGGHCGSFLNINCWCET [pEM34, peptide derived from Ard1] |  |  | 4 | 4 | 
17 | DKLIGSCVWGAVNYTSRCNAECKRRGYKGGHCGSFANVNCWCET [pEM52, peptide derived from Ard1] |  |  | 0.5 | 1-2 | 
18 | DKLIGSCVWGAVNYTTDCNGECKRRGYKGGHCGSFANVNCWCET [pEM43, peptide derived from heliomycin] | 2 | 1 |  |  | 
19 | DKLIGSCVWLAVNYTSNCNAECKRRGYKGGHCGSFANVNCWCET [pEM56, peptide derived from Ard1] |  |  | 0.5 | 1-2 | 
20 | DKLIGSCVWLAVNYTSNCNAECKRRGYKGGHCGSFANVNCWCQT [pEM57, peptide derived from Ard1] |  |  | 8 | 1 | 
21 | DKLIGSCVWLAVNYTSNCNAECKRRGYKGGHCGSFLNVNCWCET [pEM54, peptide derived from Ard1] |  |  | 1 | 1 | 
22 | DKLIGSCVWLAVNYTSNCNAECKRRGYKGGHCGSFLNVNCWCQT [pEM55, peptide derived from Ard1] |  |  | 2-7 | 1-2 | 
23 | DKLIGTCVWGAVNYTSDCNGECKRRGYKGGHCGSFANVNCWCET [pEM38, peptide derived from heliomycin] | 1 | 1 |  |  | 
24 | NKLIGSCVWGAVNYTSDCNGECKRRGYKGGHCGSFANVNCWCET [pEM37, peptide derived from heliomycin] |  | 2 |  |  | 
25 | NKLIGSCVWGAVNYTSDCNGECKRRGYKGGHCGSFANVNCWCQT [pEM39, peptide derived from heliomycin] | 4-8 | 2 |  |  | 
26 | NKLIGSCVWGAVNYTSDCNGECKRRGYKGGHCGSFINVNCWCQT [pEM62, peptide derived from heliomycin] | 2-4 | 3-6 |  |  | 
27 | NKLIGSCVWGAVNYTSDCNGECKRRGYKGGHCGSFLNVNCWCQT [pEM61, peptide derived from heliomycin] | 3-6 | 5-10 |  |  | 
28 | NKLIGSCVWGAVNYTSNCNAECKRRGYKGGHCGSFANVNCWCET [pEM40, peptide derived from Ard1] |  |  | 1 | 2 | 
